{"source": "the supplement of paper PMC10307832", "test_in_all_cases": "relative viability (nuclei count vs DMSO), 5 days (fraction); higher = more cells survive", "key": {"[1]": {"compound": "O=C(O)c1ccc2c(c1)nc(Nc1cccc(Cl)c1)c1ccncc12 [Silmitasertib]", "in_short": "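In 1536-well plates, lung cancer cell lines rested overnight at 37 °C before five library-drug doses (not always all listed), √10 apart, were pinned onto vehicle-anchored plates. Nuclei were counted with MetaXpress from 4× Hoechst images taken after 5 days without medium change. Viability compares treated-well with vehicle-well nuclei as a median over plates, and plates needed control CV below 25% plus at least one doubling to pass.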"}, "[2]": {"compound": "O=C(O)c1ccc2c(c1)nc(Nc1cccc(Cl)c1)c1ccncc12 [Silmitasertib] + O=C(c1cc(Cc2n[nH]c(=O)c3ccccc23)ccc1F)N1CCN(C(=O)C2CC2)CC1 [Olaparib] (partner 8 µM)", "in_short": "(§1)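 Lung cancer cell lines were pin-tool dosed in 1536-well plates on the day after seeding, with either a lone drug or a fixed anchor-drug dose plus five library-drug doses (not always all listed) in √10 steps. Nuclei were counted on 4× images after 5 days. Relative viability is the ratio of treated-well to vehicle-well nuclei counts, with each value a median of duplicate plates.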"}, "[3]": {"compound": "O=C(O)c1ccc2c(c1)nc(Nc1cccc(Cl)c1)c1ccncc12 [Silmitasertib] + CS(=O)(=O)N1CCN(Cc2cc3nc(-c4cccc5[nH]ncc45)nc(N4CCOCC4)c3s2)CC1 [Pictilisib] (partner 1 µM)", "in_short": "as §1"}, "[4]": {"compound": "O=C(O)c1ccc2c(c1)nc(Nc1cccc(Cl)c1)c1ccncc12 [Silmitasertib] + COc1cc2c(Oc3ccc(NC(=O)C4(C(=O)Nc5ccc(F)cc5)CC4)cc3F)ccnc2cc1OCCCN1CCOCC1 [Foretinib] (partner 0.25 µM)", "in_short": "as §1"}, "[5]": {"compound": "O=C(O)c1ccc2c(c1)nc(Nc1cccc(Cl)c1)c1ccncc12 [Silmitasertib] + CC1(C)CCC(c2ccc(Cl)cc2)=C(CN2CCN(c3ccc(C(=O)NS(=O)(=O)c4ccc(N[C@H](CCN5CCOCC5)CSc5ccccc5)c(S(=O)(=O)C(F)(F)F)c4)cc3)CC2)C1 [Navitoclax] (partner 0.5 µM)", "in_short": "as §1"}, "[6]": {"compound": "O=C(O)c1ccc2c(c1)nc(Nc1cccc(Cl)c1)c1ccncc12 [Silmitasertib] + CS(=O)(=O)CCNCc1ccc(-c2ccc3ncnc(Nc4ccc(OCc5cccc(F)c5)c(Cl)c4)c3c2)o1 [Lapatinib] (partner 2 µM)", "in_short": "as §1"}, "[7]": {"compound": "O=C(O)c1ccc2c(c1)nc(Nc1cccc(Cl)c1)c1ccncc12 [Silmitasertib] + Cc1nc(NC(=O)N2CCC[C@H]2C(N)=O)sc1-c1ccnc(C(C)(C)C(F)(F)F)c1 [Alpelisib] (partner 2 µM)", "in_short": "as §1"}, "[8]": {"compound": "O=C(O)c1ccc2c(c1)nc(Nc1cccc(Cl)c1)c1ccncc12 [Silmitasertib] + C[C@]1(O)C[C@@H](c2nc(-c3ccc4ccc(-c5ccccc5)nc4c3)c3c(N)nccn32)C1 [Linsitinib] (partner 1 µM)", "in_short": "as §1"}, "[9]": {"compound": "O=C(O)c1ccc2c(c1)nc(Nc1cccc(Cl)c1)c1ccncc12 [Silmitasertib] + CC(C)C[C@H](NC(=O)[C@H](Cc1ccccc1)NC(=O)c1cnccn1)B(O)O [Bortezomib] (partner 0.002 µM)", "in_short": "as §1"}, "[10]": {"compound": "O=C(O)c1ccc2c(c1)nc(Nc1cccc(Cl)c1)c1ccncc12 [Silmitasertib] + C[C@@H](Oc1cc(-c2cnn(C3CCNCC3)c2)cnc1N)c1c(Cl)ccc(F)c1Cl [Crizotinib] (partner 1 µM)", "in_short": "as §1"}}, "data": [{"cell line": "Calu-6", "values": [{"measurement": "relative viability", "setting": "[1]; 0.04 µM", "result": 1.14}, {"measurement": "relative viability", "setting": "[1]; 0.4 µM", "result": 0.898}, {"measurement": "relative viability", "setting": "[1]; 1.265 µM", "result": 0.885}, {"measurement": "relative viability", "setting": "[1]; 4 µM", "result": 0.663}, {"measurement": "relative viability", "setting": "[2]; first compound 0.04 µM", "result": 0.654}, {"measurement": "relative viability", "setting": "[2]; first compound 0.4 µM", "result": 0.28}, {"measurement": "relative viability", "setting": "[2]; first compound 1.265 µM", "result": 0.445}, {"measurement": "relative viability", "setting": "[2]; first compound 4 µM", "result": 0.39}, {"measurement": "relative viability", "setting": "[3]; first compound 0.04 µM", "result": 0.99}, {"measurement": "relative viability", "setting": "[3]; first compound 0.4 µM", "result": 0.934}, {"measurement": "relative viability", "setting": "[3]; first compound 1.265 µM", "result": 0.628}, {"measurement": "relative viability", "setting": "[3]; first compound 4 µM", "result": 0.359}, {"measurement": "relative viability", "setting": "[4]; first compound 0.04 µM", "result": 0.963}, {"measurement": "relative viability", "setting": "[4]; first compound 0.4 µM", "result": 0.83}, {"measurement": "relative viability", "setting": "[4]; first compound 1.265 µM", "result": 0.846}, {"measurement": "relative viability", "setting": "[4]; first compound 4 µM", "result": 0.616}, {"measurement": "relative viability", "setting": "[5]; first compound 0.04 µM", "result": 1}, {"measurement": "relative viability", "setting": "[5]; first compound 0.4 µM", "result": 0.783}, {"measurement": "relative viability", "setting": "[5]; first compound 1.265 µM", "result": 0.661}, {"measurement": "relative viability", "setting": "[5]; first compound 4 µM", "result": 0.374}, {"measurement": "relative viability", "setting": "[6]; first compound 0.04 µM", "result": 1.13}, {"measurement": "relative viability", "setting": "[6]; first compound 0.4 µM", "result": 0.945}, {"measurement": "relative viability", "setting": "[6]; first compound 1.265 µM", "result": 0.761}, {"measurement": "relative viability", "setting": "[6]; first compound 4 µM", "result": 0.51}, {"measurement": "relative viability", "setting": "[7]; first compound 0.04 µM", "result": 0.984}, {"measurement": "relative viability", "setting": "[7]; first compound 0.4 µM", "result": 0.938}, {"measurement": "relative viability", "setting": "[7]; first compound 1.265 µM", "result": 0.755}, {"measurement": "relative viability", "setting": "[7]; first compound 4 µM", "result": 0.571}, {"measurement": "relative viability", "setting": "[8]; first compound 0.04 µM", "result": 1.04}, {"measurement": "relative viability", "setting": "[8]; first compound 0.4 µM", "result": 0.862}, {"measurement": "relative viability", "setting": "[8]; first compound 1.265 µM", "result": 0.878}, {"measurement": "relative viability", "setting": "[8]; first compound 4 µM", "result": 0.49}, {"measurement": "relative viability", "setting": "[9]; first compound 0.04 µM", "result": 1.13}, {"measurement": "relative viability", "setting": "[9]; first compound 0.4 µM", "result": 0.868}, {"measurement": "relative viability", "setting": "[9]; first compound 1.265 µM", "result": 0.824}, {"measurement": "relative viability", "setting": "[9]; first compound 4 µM", "result": 0.602}, {"measurement": "relative viability", "setting": "[10]; first compound 0.04 µM", "result": 0.915}, {"measurement": "relative viability", "setting": "[10]; first compound 0.4 µM", "result": 0.721}, {"measurement": "relative viability", "setting": "[10]; first compound 1.265 µM", "result": 0.727}, {"measurement": "relative viability", "setting": "[10]; first compound 4 µM", "result": 0.527}]}, {"cell line": "EBC-1", "values": [{"measurement": "relative viability", "setting": "[1]; 0.04 µM", "result": 1.09}, {"measurement": "relative viability", "setting": "[1]; 0.4 µM", "result": 0.693}, {"measurement": "relative viability", "setting": "[1]; 1.265 µM", "result": 0.591}, {"measurement": "relative viability", "setting": "[1]; 4 µM", "result": 0.29}, {"measurement": "relative viability", "setting": "[2]; first compound 0.04 µM", "result": 0.796}, {"measurement": "relative viability", "setting": "[2]; first compound 0.4 µM", "result": 0.371}, {"measurement": "relative viability", "setting": "[2]; first compound 1.265 µM", "result": 0.423}, {"measurement": "relative viability", "setting": "[2]; first compound 4 µM", "result": 0.212}, {"measurement": "relative viability", "setting": "[3]; first compound 0.04 µM", "result": 0.534}, {"measurement": "relative viability", "setting": "[3]; first compound 0.4 µM", "result": 0.375}, {"measurement": "relative viability", "setting": "[3]; first compound 1.265 µM", "result": 0.178}, {"measurement": "relative viability", "setting": "[3]; first compound 4 µM", "result": 0.139}, {"measurement": "relative viability", "setting": "[4]; first compound 0.04 µM", "result": 0.0961}, {"measurement": "relative viability", "setting": "[4]; first compound 0.4 µM", "result": 0.0977}, {"measurement": "relative viability", "setting": "[4]; first compound 1.265 µM", "result": 0.0913}, {"measurement": "relative viability", "setting": "[4]; first compound 4 µM", "result": 0.0847}, {"measurement": "relative viability", "setting": "[5]; first compound 0.04 µM", "result": 0.542}, {"measurement": "relative viability", "setting": "[5]; first compound 0.4 µM", "result": 0.154}, {"measurement": "relative viability", "setting": "[5]; first compound 1.265 µM", "result": 0.134}, {"measurement": "relative viability", "setting": "[5]; first compound 4 µM", "result": 0.168}, {"measurement": "relative viability", "setting": "[6]; first compound 0.04 µM", "result": 0.225}, {"measurement": "relative viability", "setting": "[6]; first compound 0.4 µM", "result": 0.185}, {"measurement": "relative viability", "setting": "[6]; first compound 1.265 µM", "result": 0.2}, {"measurement": "relative viability", "setting": "[6]; first compound 4 µM", "result": 0.192}, {"measurement": "relative viability", "setting": "[7]; first compound 0.04 µM", "result": 0.925}, {"measurement": "relative viability", "setting": "[7]; first compound 0.4 µM", "result": 0.601}, {"measurement": "relative viability", "setting": "[7]; first compound 1.265 µM", "result": 0.262}, {"measurement": "relative viability", "setting": "[7]; first compound 4 µM", "result": 0.211}, {"measurement": "relative viability", "setting": "[8]; first compound 0.04 µM", "result": 0.982}, {"measurement": "relative viability", "setting": "[8]; first compound 0.4 µM", "result": 0.655}, {"measurement": "relative viability", "setting": "[8]; first compound 1.265 µM", "result": 0.471}, {"measurement": "relative viability", "setting": "[8]; first compound 4 µM", "result": 0.222}, {"measurement": "relative viability", "setting": "[9]; first compound 0.04 µM", "result": 0.652}, {"measurement": "relative viability", "setting": "[9]; first compound 0.4 µM", "result": 0.39}, {"measurement": "relative viability", "setting": "[9]; first compound 1.265 µM", "result": 0.347}, {"measurement": "relative viability", "setting": "[9]; first compound 4 µM", "result": 0.239}, {"measurement": "relative viability", "setting": "[10]; first compound 0.04 µM", "result": 0.189}, {"measurement": "relative viability", "setting": "[10]; first compound 0.4 µM", "result": 0.16}, {"measurement": "relative viability", "setting": "[10]; first compound 1.265 µM", "result": 0.171}, {"measurement": "relative viability", "setting": "[10]; first compound 4 µM", "result": 0.157}]}]}
